The values below are quoted from earlier work in PubChem BioAssay AID1259409 (Chemical Carcinogenesis Research Information System (CCRIS), 2018).

The structures appear in SMILES notation.

This data set deals with rodent chemically induced tumor inhibition, incidence and multiplicity. Nature of the data set: CCRIS tumor inhibitor studies.

On to `CC1=C(/C=C/C(C)=C/C=C/C(C)=C/C=C/C=C(C)/C=C/C=C(C)/C=C/C2=C(C)CCCC2(C)C)C(C)(C)CCC1`, for which the “tumour outcome (control, treated, inhibition, significance)” value (Carcinogen: 7,12-DIMETHYLBENZ[A]ANTHRACENE, 57-97-6, Dose [Inhibitor]: 0, 400 NMOL IN 200 µL ACETONE 2/WK BEGINNING 1 WK POST CARCINOGEN DOSE APPLIED SIMULTANEOUSLY WITH PROMOTER FOR 20 WK (S, Route [Inhibitor]: DERMAL, Species: MOUSE, Strain/Sex: ICR/?, Target Tissue: Type of Lesion: SKIN: PAPILLOMA, Dose [Carcinogen]: 100 UG ONCE, Promoter: 12-O-TETRADECANOYLPHORBOL-13-ACETATE, 16561-29-8) is given as 69%, 25%, 64%, not calculated; the “tumour outcome (control, treated, inhibition, significance)” value (Carcinogen: 7,12-DIMETHYLBENZ[A]ANTHRACENE, 57-97-6, Dose [Inhibitor]: 0, 1430 IU/KG IN 100 µL PEANUT OIL 5 D/WK BEGINNING 1 WK POST CARCINOGEN DOSE AND CONTINUING FOR DURATION OF STUDY (STUD, Route [Inhibitor]: GAVAGE, Species: MOUSE, Strain/Sex: HRA/SKH/FEMALE, Target Tissue: Type of Lesion: SKIN: CARCINOMA, Dose [Carcinogen]: 10 NMOL IN 50 µL ACETONE ONCE) is 7/25 (28%), 8/37 (22%), 21%, not calculated; the “tumour outcome (control, treated, inhibition, significance)” value (Carcinogen: 7,12-DIMETHYLBENZ[A]ANTHRACENE, 57-97-6, Dose [Inhibitor]: 140 UG (1.5 MG/KG BW) IN 0.4 ML MINERAL OIL 3/WK FOR 28 WK (STUDY DURATION: 28 WK), Route [Inhibitor]: ORAL, Species: HAMSTER, Strain/Sex: SYRIAN/MALE, Target Tissue: Type of Lesion: SKIN: CARCINOMA, Dose [Carcinogen]: 0.1% IN HEAVY MINERAL OIL APPLIED TO BUCCAL POUCH 3/WK FOR 28 WK, Promoter: NONE USED) was 20/20 (100%), 11/20 (55%), 45%, not calculated; the “tumour outcome (control, treated, inhibition, significance)” value (Carcinogen: 7,12-DIMETHYLBENZ[A]ANTHRACENE, 57-97-6, Dose [Inhibitor]: 250 MG/KG IN DIET BEGINNING 6 WK PRIOR TO CARCINOGEN DOSE AND CONTINUING FOR 21-22 WK POST CARCINOGEN DOSE (STUDY DURATI, Route [Inhibitor]: ORAL, Species: RAT, Strain/Sex: SPRAGUE-DAWLEY/MALE, Target Tissue: Type of Lesion: SALIVARY GLAND: TUMOR, Dose [Carcinogen]: 1 MG IN 20 µL OLIVE OIL INJECTED INTO SUBMANDIBULAR GLAND ONCE, Promoter: NONE USED) is on record as 20/28 (71%), 20/30 (67%), 6%, not significant; the “tumour outcome (control, treated, inhibition, significance)” value (Carcinogen: BENZO[A]PYRENE, 50-32-8, Dose [Inhibitor]: 0, 0.5 G/G OF DIET FOR 6 WK (STUDY DURATION: 9 WK), Route [Inhibitor]: ORAL, Species: MOUSE, Strain/Sex: NIGP(S)/FEMALE, Target Tissue: Type of Lesion: LUNG: ADENOMA, Dose [Carcinogen]: 0.5 MG INJECTED IN THE SCAPULAR REGION OF NEWBORN MICE ONCE, Promoter: NONE USED) was 56%, 38%, 32%, not calculated; the “tumour outcome (control, treated, inhibition, significance)” value (Carcinogen: BENZO[A]PYRENE, 50-32-8, Dose [Inhibitor]: 0, 0.5 G/G OF DIET FOR 6 WK (STUDY DURATION: 9 WK), Route [Inhibitor]: ORAL, Species: MOUSE, Strain/Sex: NIGP(S)/MALE, Target Tissue: Type of Lesion: LUNG: ADENOMA, Dose [Carcinogen]: 0.5 MG INJECTED IN THE SCAPULAR REGION OF NEWBORN MICE ONCE, Promoter: NONE USED) is 37%, 38%, -3%, not calculated. Also, the “tumour outcome (control, treated, inhibition, significance)” value (Carcinogen: BENZO[A]PYRENE, 50-32-8, Dose [Inhibitor]: 0, 4.7 MICROMOLAR/D IN 0.1 ML PEANUT OIL BEGINNING 2 WK PRIOR TO CARCINOGEN TREATMENT AND CONTINUING TO 2 WK POST CARCIN, Route [Inhibitor]: GAVAGE, Species: MOUSE, Strain/Sex: SWISS/FEMALE, Target Tissue: Type of Lesion: FORESTOMACH: TUMOR, Dose [Carcinogen]: 1 MG 2/WK IN 0.1 ML PEANUT OIL FOR 4 WK, Promoter: NONE USED) is reported as 20/20 (100%), 3/20 (15%), 85%, p<0.001; the “tumour outcome (control, treated, inhibition, significance)” value (Carcinogen: BENZO[A]PYRENE, 50-32-8, Dose [Inhibitor]: 2.5 MG/D IN DIET FOLLOWED 1 MO LATER BY 25 MG/0.250 KG BW BY GAVAGE 2/WK 2 HR PRIOR TO CARCINOGEN DOSE (STUDY DURATION:, Route [Inhibitor]: ORAL, GAVAGE, Species: MOUSE, Strain/Sex: SWISS/FEMALE, Target Tissue: Type of Lesion: SKIN: PAPILLOMA, SQUAMOUS EPITHELIOMA, Dose [Carcinogen]: 100 UG IN ACETONE 2/WK BEGINNING 1 MO AFTER AGENT DOSE AND CONTINUING FOR DURATION OF STUDY, Promoter: NONE USED) is given as “@65%, @55%, 15%, p<0.05”; the “tumour outcome (control, treated, inhibition, significance)” value (Carcinogen: BENZO[A]PYRENE, 50-32-8, UV IRRADIATION, Carcinogen: BENZO[A]PYRENE, 50-32-8, UV IRRADIATION, Dose [Inhibitor]: 2.5 MG/D IN DIET FOLLOWED 1 MO LATER BY 25 MG/0.250 KG BW BY GAVAGE 2/WK GIVEN 2 HR PRIOR TO CARCINOGEN DOSE (STUDY DURA, Route [Inhibitor]: ORAL, GAVAGE, Species: MOUSE, Strain/Sex: SWISS/FEMALE, Target Tissue: Type of Lesion: SKIN: PAPILLOMA, SQUAMOUS EPITHELIOMA, Dose [Carcinogen]: 100 UG IN ACETONE 2/WK BEGINNING 1 MO AFTER AGENT DOSE AND CONTINUING FOR DURATION OF STUDY PLUS UV IRRADIATION (5890 ER, Promoter: NONE USED) was “@93%, @40%, @57%, not calculated”; the “tumour outcome (control, treated, inhibition, significance)” value (Carcinogen: DIESEL EXHAUST PARTICLES, Dose [Inhibitor]: 0, 0.02% IN BASAL DIET FOR DURATION FO STUDY (STUDY DURATION: 12 MO), Route [Inhibitor]: ORAL, Species: MOUSE, Strain/Sex: ICR/MALE, Target Tissue: Type of Lesion: LYMPHATIC SYSTEM: LYMPHOMA, Dose [Carcinogen]: 0.2 MG 1/WK FOR 10 WK, Promoter: NONE USED) is listed as 6/29 (21%), 5/30 (17%), 20%, not calculated; the “tumour outcome (control, treated, inhibition, significance)” value (Carcinogen: DIESEL EXHAUST PARTICLES, Dose [Inhibitor]: 0, 0.02% IN BASAL DIET FOR DURATION OF STUDY (STUDY DURATION: 12 MO), Route [Inhibitor]: ORAL, Species: MOUSE, Strain/Sex: ICR/ MALE, Target Tissue: Type of Lesion: LYMPHATIC SYSTEM: LYMPHOMA, Dose [Carcinogen]: 0.1 MG 1/WK FOR 10 WK, Promoter: NONE USED) is reported as 3/29 (10%), 2/30 (7%), 30%, not calculated; the “tumour outcome (control, treated, inhibition, significance)” value (Carcinogen: DIESEL EXHAUST PARTICLES, Dose [Inhibitor]: 0, 0.02% IN BASAL DIET FOR DURATION OF STUDY (STUDY DURATION: 12 MO), Route [Inhibitor]: ORAL, Species: MOUSE, Strain/Sex: ICR/MALE, Target Tissue: Type of Lesion: LUNG: TUMOR, Dose [Carcinogen]: 0.05 MG 1/WK FOR 10 WK, Promoter: NONE USED) is given as 9/30 (30%), 6/30 (20%), 33%, not calculated. Also, the “tumour outcome (control, treated, inhibition, significance)” value is listed as 9/29 (31%), 10/30 (33%), -6%, not calculated (Carcinogen: DIESEL EXHAUST PARTICLES, Dose [Inhibitor]: 0, 0.02% IN BASAL DIET FOR DURATION OF STUDY (STUDY DURATION: 12 MO), Route [Inhibitor]: ORAL, Species: MOUSE, Strain/Sex: ICR/MALE, Target Tissue: Type of Lesion: LUNG: TUMOR, Dose [Carcinogen]: 0.1 MG 1/WK FOR 10 WK, Promoter: NONE USED); 7/29 (24%), 8/30 (27%), -13%, not calculated (Carcinogen: DIESEL EXHAUST PARTICLES, Dose [Inhibitor]: 0, 0.02% IN BASAL DIET FOR DURATION OF STUDY (STUDY DURATION: 12 MO), Route [Inhibitor]: ORAL, Species: MOUSE, Strain/Sex: ICR/MALE, Target Tissue: Type of Lesion: LUNG:TUMOR, Dose [Carcinogen]: 0.2 MG 1/WK FOR 10 WK, Promoter: NONE USED); 3/30 (10%), 4/30 (13%), -30%, not calculated (Carcinogen: DIESEL EXHAUST PARTICLES, Dose [Inhibitor]: 0, 0.02% IN BASAL DIET FOR DURATION OF STUDY (STUDY DURATION: 12 MO), Route [Inhibitor]: ORAL, Species: MOUSE, Strain/Sex: ICR/MALE, Target Tissue: Type of Lesion: LYMPHATIC SYSTEM: LYMPHOMA, Dose [Carcinogen]: 0.05 MG 1/WK FOR 10 WK, Promoter: NONE USED); 5/30 (17%), 5/30 (17%), 0%, not significant (Carcinogen: DIESEL EXHAUST PARTICLES, Dose [Inhibitor]: 0, 0.02% IN HIGH FAT DIET FOR DURATION OF STUDY (STUDY DRUATION : 12 MO), Route [Inhibitor]: ORAL, Species: MOUSE, Strain/Sex: ICR/MALE, Target Tissue: Type of Lesion: LYMPHATIC SYSTEM: LYMPHOMA, Dose [Carcinogen]: 0.05 MG 1/WK FOR 10 WK, Promoter: NONE USED); 12/30 (40%), 9/30 (30%), 25%, not calculated (Carcinogen: DIESEL EXHAUST PARTICLES, Dose [Inhibitor]: 0, 0.02% IN HIGH FAT DIET FOR DURATION OF STUDY (STUDY DURATION: 12 MO), Route [Inhibitor]: ORAL, Species: MOUSE, Strain/Sex: ICR/MALE, Target Tissue: Type of Lesion: LUNG: TUMOR, Dose [Carcinogen]: 0.05 MG 1/WK FOR 10 WK, Promoter: NONE USED). The outcome (Carcinogen: 7,12-DIMETHYLBENZ[A]ANTHRACENE, 57-97-6, Dose [Inhibitor]: 0, 1430 IU/KG IN 100 µL PEANUT OIL 5 D/WK BEGINNING 1 WK POST CARCINOGEN DOSE AND CONTINUING FOR DURATION OF STUDY (STUD, Route [Inhibitor]: GAVAGE, Species: MOUSE, Strain/Sex: HRA/SKH/FEMALE, Target Tissue: Type of Lesion: SKIN: PAPILLOMA, Dose [Carcinogen]: 10 NMOL IN 50 µL ACETONE ONCE) was 97%, 77%, 21%, not calculated at 20 wk; 68%, 52%, 24%, not calculated at 40 wk.
